In data set [1] the test system is 48/80-induced scratching (mast cell degranulation). Kind of data set: Compound 48/80-induced scratching in mice. In kind it is in vivo, mouse. Particulars: topical, single dose, 48/80 30 mg per kg s.c. The protocol:
The methods include the following. Itching in mice was induced with DNFB as previously described. Additional studies were done with 48/80 model (an inducer of mast cell degranulation). 48/80 was given subcutaneously (30 mg per kg).

In a further data set the test system is DNFB-induced scratching. Kind of data set: DNFB-induced scratching in mice. In kind it is in vivo, mouse. Particulars: topical, single dose. The method, then: The methods included the following. Dermatitis was produced in mice using 2-4 dinitrofluorobenzene (DNFB) as described by Buckley and Nijkamp (1994), Am J Respir Grit Care Med 149:400-7. Mice were sensitized on two consecutive days with a 0.5% DNFB solution applied to the shaved abdomen. At day 8, the ears were challenged with a 0.2% DNFB solution. Ear thickness was determined by using a micrometer. Scratching was evaluated as number of episodes per 60 minutes period. Data were analysed by ANOVA followed by the Bonferroni's test. See also Hargreaves K, et al (1988), Pain 32: 77-88 for related information.
The methods include the following. Itching in mice was induced with DNFB as previously described. Additional studies were done with 48/80 model (an inducer of mast cell degranulation). 48/80 was given subcutaneously (30 mg per kg). Data were analysed by ANOVA followed by Bonferroni's test for multiple comparisons.

In data set [2] the target is T1, h-NAAA (Homo sapiens (Human), UniProt Q02083). Description: Fluorogenic h-NAAA assay. Format: biochemical. The protocol: (§1) The assay was run in Optiplate 96-wells black plates, in a total reaction volume of 200 mL. NAAA protein preparations (4 ng) were pre-incubated for 10 minutes with various concentrations of test compounds or vehicle control (5% DMSO) in 100 mM citrate/phosphate buffer (pH 4.5) containing 3.0 mM DTT, 0.1% Triton X-100, 0.05% BSA, 150 mM NaCl. N-(4-methyl-2-oxo-chromen-7-yl)-hexadecanamide was used as a substrate (5.0 μM) and the reaction carried over for 30 minutes at 37° C. Fluorescence in the samples was quantified in a Perkin Elmer Envision plate reader using an excitation wavelength of 360 nm and emission 460 nm. IC50 values were calculated by non-linear regression analysis of log [concentration]/inhibition curves using GraphPad Prism 5 (GraphPad Software Inc., CA—USA) applying a standard slope curve fitting.
as §1, with “μL.” for “mL.”, “preparation (4.0 μg) was” for “preparations (4 ng) were”, “min” for “minutes”, “The” for “Fluorescence in the”, “were then read” for “was quantified”

Another data set concerns the target r-NAAA (Rattus norvegicus (Rat), UniProt Q5KTC7). Description: r-NAAA inhibition, rat lung lysosomal NAAA preparation, UPLC/MS. The following applies: for inhibition at 3 µM: read-out: r-NAAA % inhib. @ 3 μM. In kind it is biochemical. The method, then: Lysosomal NAAA protein preparation were obtained by homogenizing male Sprague-Dawley rat lungs (Charles River) in 20 mM Tris-HCl buffer pH 7.4 containing 0.32M sucrose. Samples were centrifuged at 800×g for 15 minutes at 4° C. Supernatants were then centrifuged at 12,000 g for 30 minutes at 4° C. Pellets were then resuspended in PBS pH 7.4 and subjected to a freeze/thaw cycle at −80° C. The suspension was finally centrifuged at 105,000×g for 1 hour at 4° C. The supernatant was then used in the enzymatic assay.
NAAA protein preparation was pre-incubated with various concentrations of test compounds or vehicle control in 100 mM NaH2PO4/Citrate buffer, 1% Triton-X, 3 mM DTT (pH 4.5) for 30 minutes at 37° C. Samples were then incubated with heptadecenoylethanolamide (50 μM, Avanti Polar Lipids) at 37° C. for 30 min. The reaction was terminated by addition of cold methanol containing heptadecanoic acid (NuCheck Prep) as internal standard. Samples were then analyzed by UPLC/MS (Acquity, Waters). Heptadecenoic and heptadecanoic acids were eluted on an Acquity UPLC BEH C18 column (50 mm length, 2.1 mm i.d., 1.7 μm pore size, Waters) isocratically at 0.5 mL/min for 1.5 min with a solvent mixture of 95% methanol and 5% water, both containing 0.25% Acetic Acid and 5 mM Ammonium Acetate. The column temperature was 40° C. Electrospray ionization was in the negative mode, capillary voltage was 0.5 kV, cone voltage was […], desolvation temperature was 500° C. N2 was used as drying gas at a flow rate of 1000 L/hour and a temperature of 500° C. The [M−H]^− ion was monitored in the selected-ion monitoring mode (m/z values: heptadecenoic acid 267.37, heptadecanoic acid 269.37). Calibration curves were generated using commercial heptadecenoic acid (NuCheck Prep). Inhibition of NAAA activity was calculated as reduction of heptadecenoic acid in the samples compared to vehicle controls. IC50 values were calculated by non-linear regression analysis of log [concentration]/inhibition curves using GraphPad Prism 5 (GraphPad Software Inc., CA—USA) applying a standard slope curve fitting.

A short description of data set [3]: Chemical stability in PBS buffer pH 7.4. In kind it is physicochemical. Particulars: phosphate-buffered saline, 0.01M PBS pH 7.4, 37° C., read-out: Stability in PBS buffer, pH 7.4 t1/2. The protocol: Chemical stability of select compounds was evaluated under physiological pH conditions (0.01M Phosphate-Buffered Saline, pH 7.4) for up to 24 h. Stock solutions of each compound (10 mM) were prepared freshly in DMSO. Each compound was incubated at a final concentration of 10 μM (1% DMSO) in pre-heated buffer (0.01M Phosphate-Buffered Saline (PBS), pH 7.4 at 37° C.). The sample solutions were divided into aliquots in glass vials (pre-heated at 37° C.) for each time point. The samples were maintained at 37° C. in the UPLC/MS Autosampler during the study (no shaking). A reference solution of each compound (final concentration: 10 μM at 1% DMSO) in pre-heated CH3CN (37° C.) was prepared from the stock solutions (10 mM in DMSO). The reference solutions were maintained at 37° C. in the UPLC/MS Autosampler during the study (no shaking). An internal standard (100 nM) was added to the sample and reference solutions. For each time point, the samples were analyzed directly by LC/MS without any further sample preparation. The samples were analyzed (triplicate injection) by monitoring the MS trace by Multiple Reaction Monitoring (MRM). The compound concentration (expressed as %) was calculated by dividing the peak area at each time point by the peak area at t=0 min. The reference solution was analyzed at the beginning (t=0 min.), and at the end of the study (t=24 h). The apparent half-lives (t1/2) of the disappearance of compound were calculated by a one-phase decay equation using a non-linear regression of compound concentration versus time.
The analyses were performed on a Waters ACQUITY UPLC/MS TQD system consisting of a TQD (Triple Quadropole Detector) Mass Spectrometer equipped with an Electrospray Ionization interface and a Photodiode Array Detector. The analyses were run on an ACQUITY UPLC BEH C18 1.7 μm 2.1×50 mm column with a VanGuard BEH C18 1.7 μm pre-column at 40° C. The mobile phase was 0.1% HCOOH in H2O (A) and 0.1% HCOOH in CH3CN (B) using a linear gradient: 0-0.2 min.: 5% B, 0.2-2.2 min.: 5-95% B, 2.2-2.3 min.: 95-5% B, 2.3-3 min.: 5% B with flow rate at 0.5 mL/min. […]

Data set [4] concerns the target T1, h-NAAA. Kind of data set: UPLC/MS h-NAAA assay. Format: biochemical. The method, then: NAAA protein preparation (10 μg) was pre-incubated with various concentrations of test compound or vehicle control in 100 mM NaH2PO4, 100 mM Tri Sodium Citrate Dehydrate, 0.1% Triton-X 100, 3 mM DTT, pH 4.5 for 30 min at 37° C. Duplicate samples were then incubated with 50 μM C17:1 10-cis-heptadecenoylethanolamide (Avanti Polar Lipids, Alabaster, Ala.—USA) at 37° C. for 30 minutes. The reaction was terminated by the addition of 0.2 mL of cold methanol containing 1 nmol of heptadecanoic acid (NuChek Prep, Elysian, Minn.—USA) as internal standard. Samples were then analyzed by UPLC/MS. Heptadecenoic and heptadecanoic acids were eluted on an Acquity UPLC BEH C18 column (50 mm length, 2.1 mm i.d., 1.7 μm pore size, Waters) isocratically at 0.5 mL/min for 1.5 min with a solvent mixture of 95% methanol and 5% water, both containing 0.25% Acetic Acid and 5 mM Ammonium Acetate. The column temperature was 40° C. Electrospray ionization was in the negative mode, capillary voltage was 2.7 kV, cone voltage was 45 V, extractor voltage was 3 V. The source temperature was 150° C. with a desolvation temperature of 400° C. N2 was used as drying gas at a cone flow of 100 L/hour and a desolvation flow of […]. The [M−H]-ion was monitored in the selected-ion monitoring mode (m/z values: heptadecenoic acid 267.37, heptadecanoic acid 269.37). Calibration curves were generated using commercial heptadecenoic acid (NuCheck Prep) Inhibition of NAAA activity was calculated as reduction of heptadecenoic acid in the samples compared to vehicle controls. IC50 values were calculated by non-linear regression analysis of log [concentration]/inhibition curves using GraphPad Prism 5 (GraphPad Software Inc., CA—USA) applying a standard slope curve fitting.

Sequence of r-NAAA (Q5KTC7 34-362): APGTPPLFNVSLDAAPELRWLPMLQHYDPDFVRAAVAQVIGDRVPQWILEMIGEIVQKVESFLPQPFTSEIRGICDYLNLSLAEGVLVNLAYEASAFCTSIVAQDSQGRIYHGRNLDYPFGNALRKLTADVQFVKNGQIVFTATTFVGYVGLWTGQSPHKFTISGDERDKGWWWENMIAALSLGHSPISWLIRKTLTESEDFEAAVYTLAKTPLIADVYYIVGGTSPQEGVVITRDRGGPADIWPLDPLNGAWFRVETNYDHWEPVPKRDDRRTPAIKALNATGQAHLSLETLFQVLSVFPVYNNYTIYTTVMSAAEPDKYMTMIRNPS
T1 sequence (Q02083 29-359): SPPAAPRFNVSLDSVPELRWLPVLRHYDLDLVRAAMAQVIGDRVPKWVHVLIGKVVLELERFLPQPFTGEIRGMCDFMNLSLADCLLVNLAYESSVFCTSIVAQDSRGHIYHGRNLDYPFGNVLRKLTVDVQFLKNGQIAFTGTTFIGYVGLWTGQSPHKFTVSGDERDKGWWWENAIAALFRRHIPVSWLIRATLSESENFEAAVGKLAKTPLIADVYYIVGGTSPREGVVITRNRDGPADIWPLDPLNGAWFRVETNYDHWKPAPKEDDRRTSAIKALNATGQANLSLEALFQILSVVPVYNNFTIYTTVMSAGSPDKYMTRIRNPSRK

With `CC(CN1c2ccccc2Sc2ccccc21)N(C)C` (centres unmarked) [promethazine, reference compound], the 48/80-induced scratching entry in data set [1] is “effective”. Further, the DNFB-induced scratching result with DNFB-induced scratching is on record as “without effect”.

In general, IC50 refers to the concentration that gives 50% inhibition. Read a low IC50 as inhibition by little substance. As to `CC(C)[C@H]1OC(=O)[C@@H]1NC(=O)OC(C)(C)CCCCc1ccccc1` (relative stereo) [Example 55, (1,1-Dimethyl-5-phenyl-pentyl)-N-[(2R*,3R*)-2-isopropyl-4-oxo-oxetan-3-yl]-carbamate], the concentration for half-maximal inhibition (IC50) on h-NAAA [2] came to 12 nM. For the same compound, at r-NAAA, the inhibition at 3 µM was 98%.

As for `C[C@@H]1C[C@H]2[C@@H]3CCC4=CC(=O)C=C[C@]4(C)[C@@]3(F)[C@@H](O)C[C@]2(C)[C@@]1(O)C(=O)CO` [dexamethasone, reference compound], the 48/80-induced scratching result in data set [1] is on record as “without effect”. For the same compound, the DNFB-induced scratching entry in the data set on DNFB-induced scratching was “increased scratching”.

At h-NAAA [2], `CC(C)(C)[C@H]1OC(=O)[C@@H]1NC(=O)OCCCCCc1ccccc1` (relative stereo) [Example 56, 5-Phenylpentyl-N-[(2R*,3R*)-2-tert-butyl-4-oxo-oxetan-3-yl]-carbamate] showed a concentration for half-maximal inhibition (IC50) of 267 nM. On r-NAAA, the inhibition at 3 µM turned out to be 75%.

At h-NAAA [2], `CC(C)(C)[C@@H]1OC(=O)[C@@H]1NC(=O)OCCCCCc1ccccc1` (relative stereo) [Example 58, 5-Phenylpentyl-N-[(2S*,3R*)-2-tert-butyl-4-oxo-oxetan-3-yl]-carbamate] showed a 50% inhibitory concentration (IC50) of 278 nM. The inhibition at 3 µM on r-NAAA was 67%.

For the compound `C[C@H]1C[C@H]2[C@@H]3CCC4=CC(=O)C=C[C@]4(C)[C@@]3(F)[C@@H](O)C[C@]2(C)[C@@]1(O)C(=O)CCl` [clobetasol, reference compound], the 48/80-induced scratching result in data set [1] was “without effect”. Further, the DNFB-induced scratching result with DNFB-induced scratching is reported as “increased scratching”.

Consider `O=C(N[C@H]1COC1=O)OCCCCCc1ccccc1`, for which the half-life at 10 μM in data set [3] came to 23 min.

`CC[C@H]1OC(=O)[C@@H]1NC(=O)OCCCCCc1ccccc1` (relative stereo) [Example 47, 5-Phenylpentyl-N-[(2R*,3R*)-2-ethyl-4-oxo-oxetan-3-yl]-carbamate] registered an IC50 at h-NAAA [2] of 4 nM. Besides, the inhibition at 3 µM on r-NAAA amounted to 92%.

On h-NAAA [2], `CC[C@@H]1OC(=O)[C@@H]1NC(=O)OCCCCCc1ccccc1` (relative stereo) [Example 49, 5-Phenylpentyl-N-[(2S*,3R*)-2-ethyl-4-oxo-oxetan-3-yl]-carbamate] registered a 50% inhibitory concentration (IC50) of 9 nM. Moreover, at r-NAAA, the inhibition at 3 µM was found to be 89%.

As for `C[C@@H]1OC(=O)[C@@H]1NC(=O)OCCCCC1CCCCC1` [Example 19, 4-cyclohexylbutyl-N-[(2S,3R)-2-methyl-4-oxo-oxetan-3-yl]-carbamate], the half-maximal inhibitory concentration (IC50) against h-NAAA [2] turned out to be 8 nM; at r-NAAA, 20 nM; on h-NAAA [4], 9 nM.
